For experiment [1], the target named is T1, Adenine phosphoribosyltransferase (Homo sapiens, UniProt P07741).
T1 sequence (P07741 whole entry): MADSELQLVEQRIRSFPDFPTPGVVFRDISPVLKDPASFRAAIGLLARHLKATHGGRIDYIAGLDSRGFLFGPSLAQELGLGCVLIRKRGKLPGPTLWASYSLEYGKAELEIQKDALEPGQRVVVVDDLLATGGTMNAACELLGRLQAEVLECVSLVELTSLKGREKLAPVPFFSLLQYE

Experiment [2] addresses Proto-oncogene tyrosine-protein kinase Src (Homo sapiens, UniProt P12931).
Experiment [3] addresses T2, Protein kinase C zeta type (Homo sapiens, UniProt Q05513).
T2 sequence (Q05513 whole entry): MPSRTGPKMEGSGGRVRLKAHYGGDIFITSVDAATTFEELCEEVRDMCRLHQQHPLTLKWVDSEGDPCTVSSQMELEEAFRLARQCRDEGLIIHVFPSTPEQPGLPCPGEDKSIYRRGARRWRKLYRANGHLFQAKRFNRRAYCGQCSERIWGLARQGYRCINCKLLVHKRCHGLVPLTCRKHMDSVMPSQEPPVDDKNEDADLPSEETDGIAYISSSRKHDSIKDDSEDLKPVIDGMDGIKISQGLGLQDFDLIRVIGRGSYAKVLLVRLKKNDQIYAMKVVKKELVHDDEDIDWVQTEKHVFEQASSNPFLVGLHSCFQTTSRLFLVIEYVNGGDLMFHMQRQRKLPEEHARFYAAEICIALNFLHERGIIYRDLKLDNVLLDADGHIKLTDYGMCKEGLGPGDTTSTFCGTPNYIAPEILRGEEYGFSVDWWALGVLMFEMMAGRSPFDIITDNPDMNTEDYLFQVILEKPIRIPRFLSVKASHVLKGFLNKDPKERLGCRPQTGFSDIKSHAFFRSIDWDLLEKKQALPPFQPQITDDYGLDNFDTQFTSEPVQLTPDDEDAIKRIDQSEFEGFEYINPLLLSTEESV

Experiment [4] deals with PAS domain-containing serine/threonine-protein kinase (Homo sapiens, UniProt Q96RG2).
Experiment [5] has as its target T3, Cyclin-dependent kinase-like 5 (Homo sapiens, UniProt O76039).
T3 sequence (O76039 whole entry): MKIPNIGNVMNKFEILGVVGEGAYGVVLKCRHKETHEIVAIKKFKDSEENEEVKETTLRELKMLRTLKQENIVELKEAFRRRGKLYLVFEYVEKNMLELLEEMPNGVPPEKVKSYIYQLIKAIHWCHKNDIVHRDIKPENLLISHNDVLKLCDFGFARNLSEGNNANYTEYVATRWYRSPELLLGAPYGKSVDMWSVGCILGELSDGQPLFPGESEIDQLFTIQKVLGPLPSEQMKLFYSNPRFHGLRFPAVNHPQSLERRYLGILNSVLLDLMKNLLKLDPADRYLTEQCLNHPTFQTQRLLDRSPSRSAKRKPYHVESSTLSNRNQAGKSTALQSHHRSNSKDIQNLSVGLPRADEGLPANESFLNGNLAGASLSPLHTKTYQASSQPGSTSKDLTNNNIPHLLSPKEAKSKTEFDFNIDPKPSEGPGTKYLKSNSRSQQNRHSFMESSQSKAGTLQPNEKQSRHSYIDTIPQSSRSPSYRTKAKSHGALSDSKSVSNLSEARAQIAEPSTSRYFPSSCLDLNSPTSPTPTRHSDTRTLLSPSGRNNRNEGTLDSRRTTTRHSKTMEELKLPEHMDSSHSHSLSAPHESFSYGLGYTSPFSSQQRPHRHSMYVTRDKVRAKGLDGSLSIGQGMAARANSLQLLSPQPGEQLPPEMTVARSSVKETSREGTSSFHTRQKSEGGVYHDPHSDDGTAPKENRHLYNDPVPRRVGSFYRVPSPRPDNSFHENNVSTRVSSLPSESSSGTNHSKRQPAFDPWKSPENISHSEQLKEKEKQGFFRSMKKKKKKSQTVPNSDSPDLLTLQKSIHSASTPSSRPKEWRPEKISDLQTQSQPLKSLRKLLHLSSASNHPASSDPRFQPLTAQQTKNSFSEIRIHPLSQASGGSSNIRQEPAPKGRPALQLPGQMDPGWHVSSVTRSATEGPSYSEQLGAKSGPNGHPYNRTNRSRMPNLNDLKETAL

Experiment [6] has as its target Dual specificity protein kinase CLK2 (Homo sapiens, UniProt P49760).
The target of experiment [7] is Dual specificity testis-specific protein kinase 2 (Homo sapiens, UniProt Q96S53).
For experiment [8], the target named is Uncharacterized aarF domain-containing protein kinase 5 (Homo sapiens, UniProt Q3MIX3).
Experiment [9] deals with Serine/threonine-protein kinase MRCK gamma (Homo sapiens, UniProt Q6DT37).
Chain of Serine/threonine-protein kinase MRCK gamma (Q6DT37 whole entry): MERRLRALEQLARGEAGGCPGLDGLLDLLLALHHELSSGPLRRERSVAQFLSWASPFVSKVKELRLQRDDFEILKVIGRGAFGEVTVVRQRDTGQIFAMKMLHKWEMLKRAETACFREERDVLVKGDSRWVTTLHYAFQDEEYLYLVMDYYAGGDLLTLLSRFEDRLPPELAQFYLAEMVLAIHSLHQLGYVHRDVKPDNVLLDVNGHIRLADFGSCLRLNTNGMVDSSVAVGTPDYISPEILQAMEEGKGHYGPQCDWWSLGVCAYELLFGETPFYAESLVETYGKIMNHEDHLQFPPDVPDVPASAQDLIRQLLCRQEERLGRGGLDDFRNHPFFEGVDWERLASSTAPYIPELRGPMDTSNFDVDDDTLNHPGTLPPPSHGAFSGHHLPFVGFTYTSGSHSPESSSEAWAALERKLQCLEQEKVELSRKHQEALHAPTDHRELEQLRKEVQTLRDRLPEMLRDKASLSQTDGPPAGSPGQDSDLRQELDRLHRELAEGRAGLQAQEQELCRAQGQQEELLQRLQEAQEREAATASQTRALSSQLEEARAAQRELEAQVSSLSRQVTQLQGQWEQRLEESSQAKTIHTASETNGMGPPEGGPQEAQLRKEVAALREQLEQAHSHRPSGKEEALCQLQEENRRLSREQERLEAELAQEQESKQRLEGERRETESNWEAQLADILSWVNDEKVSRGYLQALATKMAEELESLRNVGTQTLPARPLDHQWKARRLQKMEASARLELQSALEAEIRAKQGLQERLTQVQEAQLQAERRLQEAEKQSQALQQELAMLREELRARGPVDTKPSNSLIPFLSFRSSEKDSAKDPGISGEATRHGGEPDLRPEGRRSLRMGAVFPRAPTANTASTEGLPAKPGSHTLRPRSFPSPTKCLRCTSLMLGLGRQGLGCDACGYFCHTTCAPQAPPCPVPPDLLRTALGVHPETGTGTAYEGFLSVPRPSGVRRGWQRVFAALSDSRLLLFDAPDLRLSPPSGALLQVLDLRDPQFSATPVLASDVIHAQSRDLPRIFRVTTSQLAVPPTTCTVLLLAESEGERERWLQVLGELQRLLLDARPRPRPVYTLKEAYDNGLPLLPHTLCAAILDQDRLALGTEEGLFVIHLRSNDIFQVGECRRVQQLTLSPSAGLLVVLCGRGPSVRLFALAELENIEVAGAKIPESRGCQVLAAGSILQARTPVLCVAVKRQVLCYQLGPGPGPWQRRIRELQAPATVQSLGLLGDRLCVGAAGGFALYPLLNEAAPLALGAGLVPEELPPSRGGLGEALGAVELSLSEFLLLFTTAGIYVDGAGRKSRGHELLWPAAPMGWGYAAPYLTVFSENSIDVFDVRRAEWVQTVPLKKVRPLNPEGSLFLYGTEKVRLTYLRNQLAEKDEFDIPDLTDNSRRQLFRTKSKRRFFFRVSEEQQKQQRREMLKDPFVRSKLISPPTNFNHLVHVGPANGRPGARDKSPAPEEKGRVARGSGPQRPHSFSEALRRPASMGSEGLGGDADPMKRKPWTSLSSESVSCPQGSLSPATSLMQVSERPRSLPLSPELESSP
The target of a further experiment is T4, Aurora kinase A (Homo sapiens, UniProt O14965).
T4 sequence (O14965 whole entry): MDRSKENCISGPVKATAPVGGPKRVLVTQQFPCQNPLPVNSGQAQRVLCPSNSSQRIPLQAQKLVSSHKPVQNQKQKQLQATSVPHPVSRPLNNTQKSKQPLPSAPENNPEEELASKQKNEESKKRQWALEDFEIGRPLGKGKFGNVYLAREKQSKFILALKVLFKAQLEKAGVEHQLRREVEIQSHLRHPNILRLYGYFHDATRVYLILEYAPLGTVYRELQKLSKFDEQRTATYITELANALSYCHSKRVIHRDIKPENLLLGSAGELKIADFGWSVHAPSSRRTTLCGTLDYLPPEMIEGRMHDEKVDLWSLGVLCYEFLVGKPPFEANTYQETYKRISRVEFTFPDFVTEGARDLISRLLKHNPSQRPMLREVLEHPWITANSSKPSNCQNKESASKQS

Experiment [10] concerns the target Serine/threonine-protein kinase PAK 6 (Homo sapiens, UniProt Q9NQU5).
In the next experiment the target is Midasin (Homo sapiens, UniProt Q9NU22).
In experiment [11] the target is Proto-oncogene tyrosine-protein kinase receptor Ret (Homo sapiens, UniProt P07949).
Chain of Proto-oncogene tyrosine-protein kinase receptor Ret (P07949 whole entry): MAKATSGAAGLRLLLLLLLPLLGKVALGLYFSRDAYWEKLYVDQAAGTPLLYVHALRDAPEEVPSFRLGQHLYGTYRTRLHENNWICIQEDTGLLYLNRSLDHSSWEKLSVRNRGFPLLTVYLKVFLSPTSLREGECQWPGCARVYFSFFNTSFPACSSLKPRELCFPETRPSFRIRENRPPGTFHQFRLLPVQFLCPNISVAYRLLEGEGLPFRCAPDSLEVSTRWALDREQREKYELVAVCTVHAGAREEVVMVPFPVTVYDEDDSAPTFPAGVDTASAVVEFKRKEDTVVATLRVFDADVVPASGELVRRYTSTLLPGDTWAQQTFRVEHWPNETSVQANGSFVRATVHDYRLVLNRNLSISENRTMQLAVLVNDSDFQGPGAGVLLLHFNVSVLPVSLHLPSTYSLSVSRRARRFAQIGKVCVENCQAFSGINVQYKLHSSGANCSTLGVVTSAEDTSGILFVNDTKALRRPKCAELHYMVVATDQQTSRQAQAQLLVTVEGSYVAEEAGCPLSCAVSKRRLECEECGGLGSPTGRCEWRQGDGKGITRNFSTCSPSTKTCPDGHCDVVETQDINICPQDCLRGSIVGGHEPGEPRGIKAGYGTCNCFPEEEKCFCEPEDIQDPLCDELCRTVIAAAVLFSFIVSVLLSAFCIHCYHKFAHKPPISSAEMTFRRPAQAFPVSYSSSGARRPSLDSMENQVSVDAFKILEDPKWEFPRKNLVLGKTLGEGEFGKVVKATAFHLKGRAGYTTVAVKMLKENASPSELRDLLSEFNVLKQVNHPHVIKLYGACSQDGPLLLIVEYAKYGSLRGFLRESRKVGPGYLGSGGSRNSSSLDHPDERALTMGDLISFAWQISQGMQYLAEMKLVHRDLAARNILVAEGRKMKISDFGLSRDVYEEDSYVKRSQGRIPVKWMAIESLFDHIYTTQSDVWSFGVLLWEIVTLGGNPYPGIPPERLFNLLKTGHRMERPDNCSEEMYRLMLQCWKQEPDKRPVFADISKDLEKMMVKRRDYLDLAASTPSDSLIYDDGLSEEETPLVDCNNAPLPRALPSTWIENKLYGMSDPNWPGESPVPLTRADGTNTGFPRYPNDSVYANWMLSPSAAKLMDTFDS
For experiment [12], the target named is Serine/threonine-protein kinase Nek7 (Homo sapiens, UniProt Q8TDX7).
Chain of Serine/threonine-protein kinase Nek7 (Q8TDX7 whole entry): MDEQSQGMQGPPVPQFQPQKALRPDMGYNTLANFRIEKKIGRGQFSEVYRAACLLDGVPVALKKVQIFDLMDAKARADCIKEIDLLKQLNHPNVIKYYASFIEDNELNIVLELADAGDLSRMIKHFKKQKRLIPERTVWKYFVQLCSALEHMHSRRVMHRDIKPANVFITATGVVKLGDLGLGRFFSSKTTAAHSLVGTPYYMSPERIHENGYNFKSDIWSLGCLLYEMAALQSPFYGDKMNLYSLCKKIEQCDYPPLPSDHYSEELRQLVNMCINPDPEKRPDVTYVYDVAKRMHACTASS
Experiment [13] deals with Cyclin-dependent kinase 17 (Homo sapiens, UniProt Q00537).
Chain of Cyclin-dependent kinase 17 (Q00537 whole entry): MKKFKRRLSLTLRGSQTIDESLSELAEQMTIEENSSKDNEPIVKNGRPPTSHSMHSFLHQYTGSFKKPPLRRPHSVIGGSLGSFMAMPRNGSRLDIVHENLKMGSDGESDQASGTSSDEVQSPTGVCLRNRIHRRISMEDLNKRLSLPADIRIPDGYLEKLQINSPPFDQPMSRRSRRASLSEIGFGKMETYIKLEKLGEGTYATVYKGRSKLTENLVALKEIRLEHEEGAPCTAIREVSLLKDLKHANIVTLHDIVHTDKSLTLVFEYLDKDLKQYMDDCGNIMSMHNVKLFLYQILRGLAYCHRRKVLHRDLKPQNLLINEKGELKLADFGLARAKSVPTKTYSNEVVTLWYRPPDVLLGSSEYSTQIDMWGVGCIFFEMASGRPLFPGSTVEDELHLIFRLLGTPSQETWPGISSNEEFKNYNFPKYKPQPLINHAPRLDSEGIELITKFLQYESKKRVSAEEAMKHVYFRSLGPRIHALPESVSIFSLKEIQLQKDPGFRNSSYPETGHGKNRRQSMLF
Experiment [14] concerns the target Dual specificity protein kinase CLK1 (Homo sapiens, UniProt P49759).
Experiment [15] concerns the target cAMP-dependent protein kinase catalytic subunit beta (Homo sapiens, UniProt P22694).

Active and inactive are the calls of the source.
Also: in the data inactive means no Kd found up to 30 µM.

Chain of Dual specificity protein kinase CLK1 (P49759 whole entry): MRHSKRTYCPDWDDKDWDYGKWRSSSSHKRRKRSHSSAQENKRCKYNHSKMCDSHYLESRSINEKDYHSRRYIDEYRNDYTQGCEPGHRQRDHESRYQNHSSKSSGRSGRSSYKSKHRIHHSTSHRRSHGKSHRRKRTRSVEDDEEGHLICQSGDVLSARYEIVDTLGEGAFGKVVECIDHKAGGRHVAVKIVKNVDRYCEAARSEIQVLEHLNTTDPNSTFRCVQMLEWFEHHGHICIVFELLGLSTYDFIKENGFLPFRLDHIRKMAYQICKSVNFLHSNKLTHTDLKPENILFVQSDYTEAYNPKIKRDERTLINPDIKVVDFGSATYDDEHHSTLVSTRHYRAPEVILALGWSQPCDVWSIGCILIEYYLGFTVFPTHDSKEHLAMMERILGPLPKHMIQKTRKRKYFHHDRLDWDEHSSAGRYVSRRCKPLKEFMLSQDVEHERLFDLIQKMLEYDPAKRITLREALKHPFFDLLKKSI
Chain of Serine/threonine-protein kinase PAK 6 (Q9NQU5 whole entry): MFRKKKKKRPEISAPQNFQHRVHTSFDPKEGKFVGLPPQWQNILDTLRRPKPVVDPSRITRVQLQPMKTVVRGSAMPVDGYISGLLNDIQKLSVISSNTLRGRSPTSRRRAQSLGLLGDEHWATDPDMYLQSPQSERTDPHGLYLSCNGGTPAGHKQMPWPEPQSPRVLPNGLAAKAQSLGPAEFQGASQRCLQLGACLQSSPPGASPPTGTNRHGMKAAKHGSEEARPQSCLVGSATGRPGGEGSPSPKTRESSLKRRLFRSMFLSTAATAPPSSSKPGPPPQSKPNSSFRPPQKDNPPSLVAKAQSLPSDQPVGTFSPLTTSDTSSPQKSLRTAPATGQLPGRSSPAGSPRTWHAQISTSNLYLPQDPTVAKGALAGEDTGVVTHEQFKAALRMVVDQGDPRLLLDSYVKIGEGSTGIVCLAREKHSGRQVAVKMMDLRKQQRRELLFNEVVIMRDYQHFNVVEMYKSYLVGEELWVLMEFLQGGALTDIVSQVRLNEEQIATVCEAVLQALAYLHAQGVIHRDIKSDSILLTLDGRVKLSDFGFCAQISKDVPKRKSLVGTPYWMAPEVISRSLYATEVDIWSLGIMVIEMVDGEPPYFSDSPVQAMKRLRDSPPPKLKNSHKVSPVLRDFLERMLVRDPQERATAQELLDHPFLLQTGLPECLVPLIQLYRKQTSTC

`Cc1cc2c(F)c(Oc3ncnn4cc(OC[C@@H](C)OC(=O)[C@H](C)N)c(C)c34)ccc2[nH]1` [BRIVANIB ALANINATE]: the Kd in [1], in [2], in experiment [3], in experiment [4], in experiment [5] and in experiment [6] was > 30 µM (inactive) each time. The Kd (in experiment [7]; in experiment [8]; in experiment [9]; at Aurora kinase A; in experiment [10]; on Midasin) was > 30 µM (inactive) in each case. Besides, the Kd in experiment [11] was 7.48 µM (active); in [12] it was > 30 µM (inactive); in experiment [13], > 30 µM (inactive); in experiment [14], > 30 µM (inactive); in experiment [15], > 30 µM (inactive).
Regarding `COc1cc2nccc(Oc3ccc(NC(=O)Nc4cc(C)on4)c(Cl)c3)c2cc1OC` [TIVOZANIB], the Kd in [1], in experiment [3], in experiment [4], in experiment [5], in [6] and in [7] was > 30 µM (inactive) each time. In addition, the Kd (in [8]; in experiment [9]; at Aurora kinase A; in [10]; on Midasin; in [12]) was > 30 µM (inactive) throughout. For the same compound, the Kd in experiment [13], in experiment [14] and in [15] was > 30 µM (inactive) in each case.
In the case of `COCCNCc1ccc(-c2cc3nccc(Oc4ccc(NC(=S)NC(=O)Cc5ccc(F)cc5)cc4F)c3s2)nc1` [GLESATINIB], the Kd in [1], in [3], in [4], in experiment [5], in [6] and in experiment [7] was > 30 µM (inactive) each time. For the same compound, the Kd (in experiment [8]; in [9]; on Aurora kinase A; in experiment [10]; at Midasin; in experiment [11]) was > 30 µM (inactive) in each case. Further, the Kd in experiment [12], in experiment [13], in [14] and in [15] was > 30 µM (inactive) each time.
In the case of `Cn1cc(-c2ccc3nnc(C(F)(F)c4ccc5ncccc5c4)n3n2)cn1` [JNJ-38877605], the Kd in experiment [1], in experiment [2], in experiment [3], in experiment [4], in [5] and in [6] was > 30 µM (inactive) in each case. In addition, the Kd (in experiment [7]; in [8]; in experiment [9]; on Aurora kinase A; in experiment [10]; on Midasin) was > 30 µM (inactive) in each case. Further, the Kd in [11], in experiment [12], in experiment [13], in experiment [14] and in experiment [15] was > 30 µM (inactive) each time.
For the compound `Cc1cc(-c2cc(O)ccc2Cl)cc2nnc(Nc3ccc(OCCN4CCCC4)cc3)nc12`, the Kd in experiment [1] was > 30 µM (inactive); in experiment [2], 0.001 µM (active); in [3] it was > 30 µM (inactive); in experiment [4] it was > 30 µM (inactive); in experiment [5], > 30 µM (inactive); in [6], > 30 µM (inactive). Moreover, the Kd (in experiment [7]; in experiment [8]; in [9]; on Aurora kinase A; in [10]; on Midasin) was > 30 µM (inactive) in each case. Besides, the Kd is 0.001 µM (active) in experiment [11]; > 30 µM (inactive) in experiment [12]; > 30 µM (inactive) in experiment [13]; > 30 µM (inactive) in experiment [14]; > 30 µM (inactive) in experiment [15].

In general, Kd refers to the concentration at which binding is half-saturated.

Source of the values: ChEMBL document CHEMBL3991601, “The target landscape of clinical kinase drugs” (Science, 2017).
